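A five-concentration, 48-hour dose response in 96-well plates underlies each endpoint, interpolated linearly between surrounding concentrations. Abbreviation: GI50, concentration required for 50% inhibition of growth. TGI: total growth inhibition.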
Experiments:
Assay in all cases: NCI-60 cell line screen, 48 h
[1] = tested on: ACHN renal
[2] = tested on: HCC-2998 colon
[3] = tested on: HCT-116 colon
[4] = tested on: HOP-92 NSCLC
[5] = tested on: KM12 colon
[6] = tested on: LOX IMVI melanoma
[7] = tested on: SF-268 CNS
[8] = tested on: SNB-75 CNS
[9] = tested on: UACC-257 melanoma
[10] = tested on: UACC-62 melanoma

Row | Structure (SMILES) | TGI [1] [µM] | TGI [2] [µM] | TGI [3] [µM] | TGI [4] [µM] | TGI [5] [µM] | TGI [6] [µM] | TGI [7] [µM] | TGI [8] [µM] | TGI [9] [µM] | TGI [10] [µM] | GI50 [1] [µM] | GI50 [2] [µM] | GI50 [3] [µM] | GI50 [4] [µM] | GI50 [5] [µM] | GI50 [6] [µM] | GI50 [7] [µM] | GI50 [8] [µM] | GI50 [9] [µM] | GI50 [10] [µM]
1 | CC1(C)CC[C@]2(C(=O)O)CCC3(C)C(=CCC4[C@@]5(C)CC[C@H](OC6OCC(O)C(O)C6OC6OC(CO)C(O)C(O)C6O)C(C)(C)C5CC[C@]43C)C2C1 (some centres undefined) | 3.64 | 3.16 | 7.06 | 3.69 | 4.8 | 4.18 | 4.61 | 4.6 | 9.21 | 3.42 |  |  |  |  |  |  |  |  |  | 
2 | Cc1ccc2c(c1)/C(=N\N=C/c1cn(C(C)C)c3ccccc13)C(=O)N2 | > 100 | 14.9 | > 100 | 67.2 | > 100 | 25.2 | > 100 | > 100 | > 100 | > 100 | 2.95 | 2.42 | 1.09 | 1.73 | 5.5 | 2.55 | 4.9 | 3.2 | 5.05 | 2.69
3 | C/C(=N\NC(=S)Nc1ccccc1)c1ccccn1 | 3.75 | 3.12 | 1.17 | 0.607 | 2.29 | 2.04 | 5.17 | 11 | 0.384 | 2.96 | 0.0335 | 0.924 | < 0.01 | < 0.0162 | 0.143 | 0.0395 | 0.205 | 1.86 | 0.032 | 0.264
4 | O=[N+]([O-])c1ccc(N=Nc2c(O)[nH]c3ccc(Br)cc23)c([N+](=O)[O-])c1 | 9.44 | 23.4 | 3.09 | 5.1 | 79.6 | 3.17 | 16.6 | 11.5 | 15.6 | 16.2 |  |  |  |  |  |  |  |  |  | 
5 | O=c1[nH]cnc2c1nnn2C1C=C(CO)C(O)C1O (centres undefined) | > 100 | > 100 | > 100 | > 100 | > 100 | 81.5 | > 100 | > 100 | > 100 | > 100 |  |  |  |  |  |  |  |  |  | 
6 | NCCCNCCCNc1nc2ccccc2c2[nH]c3ccccc3c12 | 2.82 | 0.733 | 1.87 | 0.747 | 3.93 | 1.12 | 1.72 | 1.29 | 6.2 | 1.73 | 0.112 | 0.109 | 0.091 | 0.173 | 0.684 | 0.0363 | 0.0264 | 0.224 | 2.31 | 0.327
7 | CCN1C(=O)N(CC)C2C1NN=c1s/c(=C\c3ccc([N+](=O)[O-])cc3)c(=O)n12 (centres undefined) | > 100 | > 100 | > 100 | > 100 | > 100 | > 100 | > 67.7 | 0.783 | 70 | > 100 | 0.587 | 1.61 | 0.427 | 2.19 | 0.342 | 0.507 | 0.895 | 0.181 | 1.17 | 0.5
8 | Cn1cc(-c2csc(-c3cn(C)c4ncccc34)n2)c2ccccc21 | 16.6 | > 100 | 19 | 14.1 | > 76.7 | > 100 | 37.4 | 0.737 | > 100 | 44.3 | 0.899 | 1.15 | 0.354 | 0.346 | 0.242 | 0.652 | 1.12 | 0.191 | 13 | 0.325
9 | COc1cc2c(cc1OCCCN1CCN(CCCOc3cc4c(cc3OC)C(=O)C3CCC[C@H]3C=N4)CC1)N=C[C@@H]1CCCC1C2=O (some centres undefined) | > 100 | 17.5 | > 100 | > 61.4 | > 100 | > 60.7 | > 100 | > 85.4 | > 46.4 | 15.2 | 55.7 | 7.21 | 12.1 | 0.597 | 22.7 | 3.65 | 3 | 24.8 | 13 | 6.49
10 | COc1ccc(C=O)c(N(C)C(=O)C(C)(C)C)c1 | > 100 | > 100 | > 100 | > 100 | > 100 | > 100 | > 100 | > 100 | > 100 | > 100 |  |  |  |  |  |  |  |  |  | 
11 | CC/C(=C(/CC)c1ccc(OP(=O)([O-])[O-])cc1)c1ccc(OP(=O)([O-])[O-])cc1.N.N.N.N.[Pt+4].[Pt+4] | 10.9 | 24 | > 100 | 8.93 | > 100 | 11.9 | 16.6 | 7.4 | 10.1 | 5.15 | 2.08 | 11.6 | 5.66 | 3.43 | 22 | 2.08 | 1.73 | 1.24 | 2.99 | 0.901
12 | C[CH2][Sn]([CH2]C)([O]C(=O)c1cc(OC)c(OC)c(OC)c1)[O][Sn]([CH2]C)([CH2]C)[O]C(=O)c1cc(OC)c(OC)c(OC)c1 | 40.8 | > 100 | > 100 | 36.9 | > 100 | 33.2 | 44.1 | > 88.7 | 52 | 36.7 | 21.2 | > 76.1 | 68.2 | 19.6 | > 100 | 18.5 | 20.6 | 28.6 | 21.3 | 19.3
13 | CCOc1ccc(NC(=O)/C(=C/c2ccccc2)C(C)=O)cc1 | 35.3 | 27.1 | 17.5 | 28 | 27.5 | 25.2 | 30.7 | 17.9 | 27.9 | 20.1 |  |  |  |  |  |  |  |  |  | 
14 | c1ccc(COc2ccc(Nc3ncnc4ccc(-c5ccco5)cc34)cc2)cc1 | > 25 | > 25 | 12.4 | 7.21 | 14.7 | 8.96 | > 25 | > 18.9 | 24.4 | 14.3 | 6.75 | 10.6 | 4.93 | 0.379 | 6.09 | 4.36 | 8.29 | 6.82 | 7.85 | 5.75
15 | CCN1N=CSC12C(=O)N(c1ccccc1)C(=O)N2c1ccccc1 (centres undefined) | > 100 | > 100 | > 100 | > 100 | > 100 | > 100 | > 100 | > 100 | > 100 | > 100 |  |  |  |  |  |  |  |  |  | 
16 | CCN(CC)c1ccc(/C=C/C2=[N+](C)c3ccccc3C2(C)C)cc1 | 14.6 | 18.6 | 22.1 | > 35.2 | 1.83 | 23 | 33.2 | 17.3 | 14.6 | 14.9 | 1.48 | 0.547 | 0.181 | 0.766 | 0.28 | 0.251 | 0.627 | 0.34 | 0.375 | 0.435
17 | CC(=O)C(CN1CCOCC1)C(c1ccccc1)c1c(O)c2ccccc2oc1=O (centres undefined) | > 100 | > 100 | > 100 | > 100 | > 100 | > 100 | > 100 | > 100 | > 100 | > 100 |  |  |  |  |  |  |  |  |  | 
18 | O=C(Nc1ccc(Cl)cc1)C(=O)C1=C(O)c2ccccc2OC1 | > 100 | > 100 | > 100 | > 100 | > 100 | > 100 | > 100 | > 100 | > 100 | > 100 |  |  |  |  |  |  |  |  |  | 
19 | Nc1ccc(C(=O)O)c2[nH]c3ccccc3c(=O)c12 | > 100 | > 100 | > 100 | > 100 | > 100 | > 100 | > 100 | > 100 | > 100 | > 100 |  |  |  |  |  |  |  |  |  | 
20 | Oc1ccc(-c2nc(-c3ccc(F)cc3)c(-c3ccncc3)[nH]2)cc1 | > 100 | > 100 | 53 | > 100 | 72.3 | > 100 | > 100 | > 100 | 63.1 | 15.1 | 3.97 | 36.7 | 17.4 | 17.2 | 23 | 28.6 | 19.3 | 8.86 | 13.9 | 3
21 | C=C1C(=O)C23C(O)C1CCC2C12CO[C@]3(O)[C@@H](O)C1C(C)(C)CCC2O (some centres undefined) | 27.2 | 30.4 | 15.5 | 8.99 | 31.7 | 31.4 | 28.8 | 29.3 | 23.8 | 26.4 |  |  |  |  |  |  |  |  |  | 
22 | COc1cc(-c2cn(-c3ccc(Cl)cc3)c(=O)n2-c2ccccc2)cc(OC)c1OC | > 100 | > 100 | > 100 | > 88.5 | > 100 | > 100 | > 100 | 41.8 | > 100 | > 100 | 34.8 | > 56.3 | 45.8 | 24.1 | > 69.9 | 46.2 | > 68.9 | 5.51 | > 82.6 | 32.5
23 | O=C1NCC2=C1CCC1c3ccccc3CCN21 (centres undefined) | > 100 | > 100 | > 100 | > 100 | > 100 | > 100 | > 100 | > 100 | > 100 | > 100 |  |  |  |  |  |  |  |  |  | 
24 | Fc1cccc(C=NC23CC4CC(CC(C4)C2)C3)c1 | > 100 | > 100 | > 100 | > 100 | > 100 | > 100 | > 100 | > 100 | > 100 | > 100 |  |  |  |  |  |  |  |  |  | 
25 | COc1cc2nc(-c3ccc(Cl)cc3)cc(OCCCN3CCC(O)CC3)c2cc1OC | 10.4 | 5.93 | 11.3 | 6.79 | 13.6 | 0.589 | 19.6 | 5.43 | 4.56 | 4.04 | 2.43 | 1.95 | 1.44 | 1.25 | 3.13 | 0.227 | 3.36 | 1.76 | 2.06 | 1.9
26 | Cn1cc(-c2ccc3c(c2)ncn3-c2ccc(CC(=O)Nc3cc(C(C)(C)C)on3)cc2)cn1 | 10.9 | > 100 | 7.43 | 1.42 | 14.3 | 4.87 | > 46.5 | 2.87 | 53.7 | 11.6 | 0.405 | 8.04 | 1.89 | 0.227 |  | 0.732 | 0.674 | 0.474 | 3.18 | 1.53
27 | N/C(=N\N=C=C1C(=O)Nc2ccc(F)cc21)NO | > 100 | > 100 | > 100 | > 100 | > 100 | > 100 | > 100 | 65.9 | > 100 | > 100 |  |  |  |  |  |  |  |  |  | 
28 | C/C=C(\C)C(=O)O[C@@H]1C=CC(=O)O[C@H]1COC(=O)[C@H](C)O | 19 | 28.7 | 12.2 | 21.9 | 27 | 22.2 | 19.5 | 32 | 46.8 | 25.5 | 6.16 | 14.8 | 3.39 | 7.83 | 13.3 | 9.64 | 3.72 | 10.8 | 13.4 | 12.4
29 | COC(=O)C1(C)CCc2c(ccc3ccccc23)C1=O (centres undefined) | > 100 | > 100 | > 100 | > 100 | 70.4 | > 100 | > 100 | > 100 | 55.2 | 98.1 |  |  |  |  |  |  |  |  |  | 
30 | COc1ccc(N=C/C=C/C(=C/COC(C)=O)OC(C)=O)cc1 | 34.4 | > 100 | 28.7 | 57.4 | > 100 | > 100 | 86 | > 100 | 87.2 | > 100 |  |  |  |  |  |  |  |  |  | 
